Results: ChEMBL document CHEMBL4118093, “Identification of a Hit Series of Antileishmanial Compounds through the Use of Mixture-Based Libraries” (ACS Med Chem Lett, 2017)

Experiments:
Leishmania donovani [1] = experiment: Antileishmanial activity against Leishmania donovani axenic amastigotes infected in mouse J774 cells measured after 72 hrs by Draq5 staining based high content screening assay; format: functional, organism-based; conditions: J774, 72 h
Leishmania donovani [2] = experiment: Antileishmanial activity against Leishmania donovani axenic amastigotes at 5 uM after 72 hrs by Celltiter reagent based assay relative to control; format: functional
Leishmania donovani [3] = experiment: Antileishmanial activity against Leishmania donovani axenic amastigotes at 2.5 uM after 72 hrs by Celltiter reagent based assay relative to control; format: functional
J774 = experiment: Cytotoxicity against mouse J774 cells
[4] = Selectivity index, ratio of IC50 for mouse J774 cells to IC50 for Leishmania donovani axenic amastigotes infected in mouse J774 cells; format: toxicity, cell-based; conditions: read-out: Ratio IC50

Structure (SMILES) | IC50 (Leishmania donovani [1]) [µM] | inhibition at 5 µM (Leishmania donovani [2]) [%] | inhibition at 2.5 µM (Leishmania donovani [3]) [%] | IC50 (J774) [µM] | selectivity ratio [4]
CCCC[C@H]1CN(CCCC[C@H]2CNC(=N)N2CCc2cccc(C(F)(F)F)c2)C(=N)N1CCc1ccc(-c2ccccc2)cc1 | 0.3 | 100 | 47 | 28 | 88 to 89
CCCC[C@H]1CN(CCCC[C@H]2CNC(=N)N2CCC23CC4CC(CC(C4)C2)C3)C(=N)N1CCc1ccc(-c2ccccc2)cc1 | 0.9 | 0 | 0 | 22 | 25
CC1CCC(CN2C(=N)NC[C@@H]2CCCCN2CCNC2=N)CC1 (some centres not stated) | 4.4 |  |  | 6 | 1
N=C1NCCN1CCc1ccccc1 | 10 |  |  | 8 | 1
N=C1NC[C@H](CCCCN2CCN(CCc3ccc(-c4ccccc4)cc3)C2=N)N1 | 4.9 |  |  | 50 | 10
CCCCCCCN1CCN(CCCC[C@H]2CNC(=N)N2CCc2cccc(C(F)(F)F)c2)C1=N | 2.5 |  |  | 9 | 4
N=C1NC[C@H](CCCCN2CCNC2=N)N1 | 4.8 |  |  | 50 | 10
N=C1NC[C@H](CCCCN2C[C@@H](Cc3ccc4ccccc4c3)N(CCc3ccc(-c4ccccc4)cc3)C2=N)N1CCC12CC3CC(CC(C3)C1)C2 | 1.7 | 0 | 0 | 41 | 25
Cc1ccccc1CCN1C(=N)NC[C@@H]1CCCCN1CCNC1=N | 3.5 |  |  | 50 | 14
CCCC[C@H]1CNC(=N)N1CC1CCC(C)CC1 (some centres not stated) | 0.6 |  |  | 6 | 10
N=C1NCCN1CCCC[C@H]1CNC(=N)N1CCc1cccc(C(F)(F)F)c1 | 0.9 |  |  | 7 | 9
N=C1NCCN1CCCC[C@H]1CNC(=N)N1CCC12CC3CC(CC(C3)C1)C2 | 3.5 |  |  | 50 | 14
N=C1NC[C@H](CCCCN2CCN(CCc3ccccc3)C2=N)N1 | 0.6 |  |  | 20 | 36
CCCC[C@H]1CNC(=N)N1CCC12CC3CC(CC(C3)C1)C2 | 4.7 |  |  | 12 | 3
CCCCCCCN1CCN(CCCC[C@H]2CNC(=N)N2)C1=N | 10 |  |  | 13 | 1
Cc1ccc(CCN2C(=N)NC[C@@H]2CCCCN2CCNC2=N)cc1 | 3.9 |  |  | 22 | 6
N=C1N(CCCC[C@H]2CNC(=N)N2CCC23CC4CC(CC(C4)C2)C3)CCN1CCc1ccc(-c2ccccc2)cc1 | 0.7 |  |  | 23 | 33
CCCCCCCN1C(=N)N(CCCC[C@H]2CNC(=N)N2CCc2cccc(C(F)(F)F)c2)C[C@H]1Cc1ccc2ccccc2c1 | 3.5 | 100 | 37 | 50 | 14
CCCC[C@H]1CNC(=N)N1CCc1ccc(-c2ccccc2)cc1 | 2.4 |  |  | 15 | 6
N=C1NCCN1CCc1ccc(-c2ccccc2)cc1 | 4.8 |  |  | 15 | 3
CCCC[C@H]1CN(CCCC[C@H]2CNC(=N)N2)C(=N)N1 | 5 to 10 |  |  | 50 | 5 to 10
Cc1cccc(CCN2C(=N)NC[C@@H]2CCCCN2CCNC2=N)c1 | 0.9 |  |  | 50 | 56
CCCC[C@H]1CN(CCCC[C@H]2CNC(=N)N2)C(=N)N1CCc1ccc(-c2ccccc2)cc1 | 1.2 |  |  | 50 | 43
CCCC[C@H]1CNC(=N)N1CCc1ccccc1 | 1.1 |  |  | 25 | 23
CCCC[C@H]1CN(CCCC[C@H]2CNC(=N)N2CCc2cccc(C(F)(F)F)c2)C(=N)N1 | 3.5 |  |  | 11 | 3
N=C1NCCN1CCCC[C@H]1CNC(=N)N1CCc1ccccc1 | 1.2 |  |  | 16 | 13

Further lines, with some results ahead:

IC50 (Leishmania donovani [1]) [µM] | Structure (SMILES) | inhibition at 5 µM (Leishmania donovani [2]) [%] | inhibition at 2.5 µM (Leishmania donovani [3]) [%] | IC50 (J774) [µM] | selectivity ratio [4]
5 | CCCC[C@H]1CN(CCCC[C@H]2CNC(=N)N2CCc2cccc(C(F)(F)F)c2)C(=N)N1CCCCC1CCCCC1 | 43 | 0 | 50 | 10
0.7 | CCCCCCCN1C(=N)N(CCCC[C@H]2CNC(=N)N2CCCCC2CCCCC2)C[C@@H]1CC1CCCCC1 | 95 | 97 | 25 | 36
> 5 | N=C1NC[C@H](CCCCN2C[C@H](CC3CCCCC3)N(CCCCC3CCCCC3)C2=N)N1CCCCC1CCCCC1 | 95 | 77 | 24 | < 5
0.3 | N=C1NC[C@H](CCCCN2C[C@H](CC3CCCCC3)N(CCc3ccc(-c4ccccc4)cc3)C2=N)N1CCCCC1CCCCC1 | 95 | 70 | 20 | 69
0.6 | CCCC[C@H]1CN(CCCC[C@H]2CNC(=N)N2CCC23CC4CC(CC(C4)C2)C3)C(=N)N1CCCCC1CCCCC1 | 8 | 11 | 27 | 41
0.6 | CCCCCCCN1C(=N)N(CCCC[C@H]2CNC(=N)N2CCc2cccc(C(F)(F)F)c2)C[C@@H]1CCCC | 26 | 9 | 48 | 81
2.5 | CCCCCCCN1C(=N)N(CCCC[C@H]2CNC(=N)N2CCC23CC4CC(CC(C4)C2)C3)C[C@@H]1CC1CCCCC1 | 85 | 14 | 26 | 11
> 5 | N=C1NC[C@H](CCCCN2C[C@H](CC3CCCCC3)N(CCCCC3CCCCC3)C2=N)N1CCC12CC3CC(CC(C3)C1)C2 | 28 | 0 | 23 | < 5
0.9 | N=C1NC[C@H](CCCCN2C[C@H](CC3CCCCC3)N(CCc3ccc(-c4ccccc4)cc3)C2=N)N1CCC12CC3CC(CC(C3)C1)C2 | 57 | 14 | 17 | 20
4.2 | CCCC[C@H]1CN(CCCC[C@H]2CNC(=N)N2CCC23CC4CC(CC(C4)C2)C3)C(=N)N1 |  |  | 13 | 3
0.6 | CC1CCC(CCN2C(=N)NC[C@@H]2CCCCN2CCNC2=N)CC1 (some centres not stated) |  |  | 17 | 28
5.2 | N=C1NCCN1CCCC[C@H]1CNC(=N)N1CCCCC1CCCCC1 |  |  | 24 | 5
> 5 | CCCCCCCN1C(=N)N(CCCC[C@H]2CNC(=N)N2CCC23CC4CC(CC(C4)C2)C3)C[C@@H]1CCCC | 94 | 96 | 32 | < 6
1.3 | CCCCCCCN1C(=N)N(CCCC[C@H]2CNC(=N)N2)C[C@@H]1CCCC |  |  | 22 | 17
3.5 | CCCCCCCN1CCN(CCCC[C@H]2CNC(=N)N2CCCCC2CCCCC2)C1=N |  |  | 6 | 2
2.5 | CCCCCCCN1C(=N)N(CCCC[C@H]2CNC(=N)N2)C[C@@H]1CC1CCCCC1 |  |  | 50 | 20
0.9 | N=C1NC[C@H](CCCCN2C[C@@H](Cc3ccc4ccccc4c3)N(CCCCC3CCCCC3)C2=N)N1CCCCC1CCCCC1 | 0 | 0 | 50 | 56
1.8 | CC1CCCC(CCN2C(=N)NC[C@@H]2CCCCN2CCNC2=N)C1 (some centres not stated) |  |  | 19 | 10
3.8 | CCCC[C@H]1CN(CCCC[C@@H]2CNC(=N)N2CCC23CC4CC(CC(C4)C2)C3)C(=N)N1CCc1ccc(-c2ccccc2)cc1 |  |  | 21 | 6
8.9 | CCCCCCCN1C(=N)N(CCCC[C@@H]2CNC(=N)N2CCCCC2CCCCC2)C[C@@H]1CC1CCCCC1 |  |  | 50 | 6
0.6 | CCCC[C@H]1CN(CCCC[C@@H]2CNC(=N)N2CCc2cccc(C(F)(F)F)c2)C(=N)N1CCCCC1CCCCC1 |  |  | 50 | 79
1.8 | N=C1N[C@@H](CC2CCCCC2)CN1CCCC[C@H]1CNC(=N)N1CCCCC1CCCCC1 |  |  | 27 | 16
2.6 | N=C1NC[C@H](CCCCN2C[C@@H](Cc3ccc4ccccc4c3)N(CCCCC3CCCCC3)C2=N)N1CCC12CC3CC(CC(C3)C1)C2 | 99 | 99 | 32 | 13
> 5 | N=C1NC[C@H](CCCCN2C[C@@H](Cc3ccc4ccccc4c3)N(CCc3ccc(-c4ccccc4)cc3)C2=N)N1CCCCC1CCCCC1 | 95 | 15 | 34 | < 7
5.4 | CC1CCCCC1CN1C(=N)NC[C@@H]1CCCCN1CCNC1=N (some centres not stated) |  |  | 14 | 3
0.6 | CCCCCCCN1C(=N)N(CCCC[C@H]2CNC(=N)N2CCC23CC4CC(CC(C4)C2)C3)C[C@H]1Cc1ccc2ccccc2c1 | 0 | 0 | 36 | 57
